Results published in PubChem BioAssay (NCI).
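Cultured in 96-well plates, cells were exposed to test compound for 48 hours across five concentrations. At the TGI there is no net growth.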

Tests used:
Assay in all cases: NCI-60 cell line screen, 48 h
MOLT-4 leukemia = tested on: MOLT-4 leukemia
HCT-116 colon = tested on: HCT-116 colon
EKVX NSCLC = tested on: EKVX NSCLC
MDA-MB-435 = tested on: MDA-MB-435
OVCAR-5 ovarian = tested on: OVCAR-5 ovarian
M14 melanoma = tested on: M14 melanoma
CAKI-1 renal = tested on: CAKI-1 renal
MDA-N = tested on: MDA-N
LOX IMVI melanoma = tested on: LOX IMVI melanoma
SK-MEL-28 melanoma = tested on: SK-MEL-28 melanoma
IGROV1 ovarian = tested on: IGROV1 ovarian
HCC-2998 colon = tested on: HCC-2998 colon
KM12 colon = tested on: KM12 colon
A498 renal = tested on: A498 renal
SN12C renal = tested on: SN12C renal
T-47D breast = tested on: T-47D breast
NCI-H23 lung = tested on: NCI-H23 lung
OVCAR-8 ovarian = tested on: OVCAR-8 ovarian
SW-620 colon = tested on: SW-620 colon
SK-OV-3 ovarian = tested on: SK-OV-3 ovarian
SK-MEL-2 melanoma = tested on: SK-MEL-2 melanoma
NCI-H226 lung = tested on: NCI-H226 lung
ACHN renal = tested on: ACHN renal
HT29 colon = tested on: HT29 colon
HCT-15 colon = tested on: HCT-15 colon
NCI-H460 lung = tested on: NCI-H460 lung
OVCAR-3 ovarian = tested on: OVCAR-3 ovarian
HOP-92 NSCLC = tested on: HOP-92 NSCLC
TK-10 renal = tested on: TK-10 renal
SF-268 CNS = tested on: SF-268 CNS
786-0 renal = tested on: 786-0 renal
HL-60(TB) leukemia = tested on: HL-60(TB) leukemia
UACC-62 melanoma = tested on: UACC-62 melanoma
HOP-62 NSCLC = tested on: HOP-62 NSCLC
K-562 leukemia = tested on: K-562 leukemia
MCF7 breast = tested on: MCF7 breast
NCI-H522 lung = tested on: NCI-H522 lung
U251 CNS = tested on: U251 CNS
PC-3 prostate = tested on: PC-3 prostate
SNB-19 CNS = tested on: SNB-19 CNS
COLO 205 colon = tested on: COLO 205 colon
SNB-75 CNS = tested on: SNB-75 CNS
UACC-257 melanoma = tested on: UACC-257 melanoma
SF-539 CNS = tested on: SF-539 CNS
UO-31 renal = tested on: UO-31 renal
MDA-MB-231 breast = tested on: MDA-MB-231 breast
CCRF-CEM leukemia = tested on: CCRF-CEM leukemia
NCI/ADR-RES ovarian = tested on: NCI/ADR-RES ovarian
OVCAR-4 ovarian = tested on: OVCAR-4 ovarian
SF-295 CNS = tested on: SF-295 CNS
A549 NSCLC = tested on: A549 NSCLC
MALME-3M melanoma = tested on: MALME-3M melanoma
DU-145 prostate = tested on: DU-145 prostate
RXF 393 renal = tested on: RXF 393 renal
SK-MEL-5 melanoma = tested on: SK-MEL-5 melanoma
SR leukemia = tested on: SR leukemia
RPMI-8226 leukemia = tested on: RPMI-8226 leukemia

COC(=O)CNC(=O)CCSc1nnc(COc2ccc(Cl)cc2)n1-c1ccccc1
TGI (MOLT-4 leukemia): > 100 µM
TGI (HCT-116 colon): > 100 µM
TGI (EKVX NSCLC): > 100 µM
TGI (MDA-MB-435): 60.4 µM
TGI (OVCAR-5 ovarian): > 100 µM
TGI (M14 melanoma): 65.5 µM
TGI (CAKI-1 renal): 26.7 µM
TGI (MDA-N): 37.6 µM
TGI (LOX IMVI melanoma): > 100 µM
TGI (SK-MEL-28 melanoma): 56.9 µM
TGI (IGROV1 ovarian): 98.7 µM
TGI (HCC-2998 colon): > 100 µM
TGI (KM12 colon): > 100 µM
TGI (A498 renal): > 100 µM
TGI (SN12C renal): 45.9 µM
TGI (T-47D breast): > 100 µM
TGI (NCI-H23 lung): > 100 µM
TGI (OVCAR-8 ovarian): > 100 µM
TGI (SW-620 colon): > 100 µM
TGI (SK-OV-3 ovarian): > 100 µM
TGI (SK-MEL-2 melanoma): 48.8 µM
TGI (NCI-H226 lung): 84.6 µM
TGI (ACHN renal): > 100 µM
TGI (HT29 colon): > 100 µM
TGI (HCT-15 colon): > 100 µM
TGI (NCI-H460 lung): > 100 µM
TGI (OVCAR-3 ovarian): > 100 µM
TGI (HOP-92 NSCLC): > 100 µM
TGI (TK-10 renal): 35 µM
TGI (SF-268 CNS): 48.5 µM
TGI (786-0 renal): 42.6 µM
TGI (HL-60(TB) leukemia): > 100 µM
TGI (UACC-62 melanoma): 44 µM
TGI (HOP-62 NSCLC): > 100 µM
TGI (K-562 leukemia): > 100 µM
TGI (MCF7 breast): > 100 µM
TGI (NCI-H522 lung): 33.6 µM
TGI (U251 CNS): > 100 µM
TGI (PC-3 prostate): > 100 µM
TGI (SNB-19 CNS): > 100 µM
TGI (COLO 205 colon): > 100 µM
TGI (SNB-75 CNS): 40.7 µM
TGI (UACC-257 melanoma): 38.8 µM
TGI (SF-539 CNS): > 100 µM
TGI (UO-31 renal): > 100 µM
TGI (MDA-MB-231 breast): 49.1 µM
TGI (CCRF-CEM leukemia): > 100 µM
TGI (NCI/ADR-RES ovarian): > 100 µM
TGI (OVCAR-4 ovarian): > 100 µM
TGI (SF-295 CNS): > 100 µM
TGI (A549 NSCLC): > 100 µM
TGI (MALME-3M melanoma): 58.3 µM
TGI (DU-145 prostate): 51.5 µM
TGI (RXF 393 renal): 67.5 µM

COc1ccc2cc(C(=O)NCCCNC(=O)c3ccc4c(OC)c(OC)ccc4c3)ccc2c1OC
TGI (MOLT-4 leukemia): > 100 µM
TGI (HCT-116 colon): > 100 µM
TGI (EKVX NSCLC): > 100 µM
TGI (MDA-MB-435): > 100 µM
TGI (OVCAR-5 ovarian): > 100 µM
TGI (CAKI-1 renal): > 100 µM
TGI (MDA-N): > 100 µM
TGI (LOX IMVI melanoma): > 100 µM
TGI (SK-MEL-28 melanoma): > 100 µM
TGI (HCC-2998 colon): > 100 µM
TGI (KM12 colon): > 100 µM
TGI (A498 renal): > 100 µM
TGI (SN12C renal): > 100 µM
TGI (T-47D breast): > 100 µM
TGI (NCI-H23 lung): > 100 µM
TGI (SW-620 colon): > 100 µM
TGI (SK-OV-3 ovarian): > 100 µM
TGI (SK-MEL-2 melanoma): > 100 µM
TGI (ACHN renal): > 100 µM
TGI (HT29 colon): > 100 µM
TGI (HCT-15 colon): > 100 µM
TGI (NCI-H460 lung): > 100 µM
TGI (OVCAR-3 ovarian): > 100 µM
TGI (SF-268 CNS): > 100 µM
TGI (786-0 renal): > 100 µM
TGI (UACC-62 melanoma): > 100 µM
TGI (HOP-62 NSCLC): > 100 µM
TGI (K-562 leukemia): > 100 µM
TGI (MCF7 breast): > 100 µM
TGI (NCI-H522 lung): > 100 µM
TGI (U251 CNS): > 100 µM
TGI (SK-MEL-5 melanoma): > 100 µM
TGI (PC-3 prostate): > 100 µM
TGI (SNB-19 CNS): > 100 µM
TGI (COLO 205 colon): > 100 µM
TGI (UACC-257 melanoma): > 100 µM
TGI (SR leukemia): > 100 µM
TGI (UO-31 renal): > 100 µM
TGI (RPMI-8226 leukemia): > 100 µM
TGI (MDA-MB-231 breast): > 100 µM
TGI (CCRF-CEM leukemia): > 100 µM
TGI (NCI/ADR-RES ovarian): > 100 µM
TGI (OVCAR-4 ovarian): > 100 µM
TGI (SF-295 CNS): > 100 µM
TGI (A549 NSCLC): > 100 µM
TGI (DU-145 prostate): > 100 µM
TGI (RXF 393 renal): > 100 µM
